The METLIN SMRT retention time set (Domingo-Almenara et al. 2019)

Assay: gradient 5% acetonitrile 3 min, to 50% in 2 min, to 85% in 15 min, held 3 min, 100 µL/min
Settings: column: Zorbax Extend-C18 2.1 x 50 mm; eluents: water / acetonitrile, 0.1% formic acid
How it was run: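 Using water and acetonitrile that each contained 0.1% formic acid, mixtures of ~100 pure standards were separated at 100 μL/min on a Zorbax Extend-C18 column (2.1 × 50 mm, 1.8 μm). The HPLC fed a quadrupole time-of-flight mass spectrometer working in positive and negative ionization mode, with dead and dwell volumes of 40 μL and 900 μL. Data were acquired over 3 months. Retention time was read from computationally picked adduct peaks after manual inspection of each.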

| SMILES | RP-LC retention time [s] |
| --- | --- |
| Cc1ccc(-c2nnc(-c3nn(C)c4c3CN(S(=O)(=O)Cc3ccccc3Cl)CC4)o2)cc1 | 1020 |
| Cc1cc(N(C)C)n2nc(-c3ccc(C(C)(C)C)cc3)nc2n1 | 927 |
| CCSc1nnc(NC(=O)CSc2nn3c(=O)c(C)nnc3s2)s1 | 640 |
| Cc1ccc(F)c(NC(=O)c2nc(C)oc2C)c1 | 1010 |
| Cc1ccc(Nc2nc(C(=O)N3CCN(S(C)(=O)=O)CC3)cs2)c(C)c1 | 752 |
| Cc1nc(-c2cc(S(=O)(=O)N3CCC(C(=O)NCCc4cccs4)CC3)c(C)s2)no1 | 919 |
| CCC1CN(C(=O)Nc2cccc(C(=O)OC)c2)c2ccccc2O1 (stereo not given) | 1020 |
| COCCN1CCCc2ccc(NC(=O)c3ccc(Br)o3)cc21 | 913 |
| COc1cccc(/C=C/c2nc(C#N)c(NCCCN(C)C)o2)c1 | 651 |
| O=C(CN1CCCc2nc(C3CC3)ncc2C1=O)NCc1ccco1 | 663 |
| CCc1nc(OCC(=O)Nc2ccccc2CC)c2ccccc2n1 | 830 |
| O=C(CN1CCN(C(=O)Cc2cccs2)CC1)c1ccco1 | 538 |
| CCOC(=O)c1cncn1C(C)c1ccccc1 (stereo not given) | 774 |
| Cc1csc(CN2CCN(C(=O)c3cc(Cl)ccc3Cl)CC2)n1 | 654 |
| COc1ccc(C(=O)NCc2cnoc2-c2ccc(F)cc2)cc1OC | 820 |
| CC1(C(=O)NCc2ccc(F)cc2)CCCN(C(=O)Nc2cccc(Cl)c2)C1 (stereo not given) | 967 |
| CC(C)(C)c1noc(-c2ccc(-n3cnc(C(=O)NCc4ccc(F)cc4)c3)nc2)n1 | 1330 |
| COc1cccc(N2CC(C(=O)N3CC(c4nc(Cc5ccccc5)no4)C3)CC2=O)c1 (stereo not given) | 776 |
| CCOc1ccc(C(=O)NCc2c(C)noc2C)cc1 | 733 |
| CCCN1C(=O)COc2ccc(-c3csc(NC(=O)C4CC4)n3)cc21 | 879 |
| O=C(CCn1c(CO)nc2ccccc21)c1ccccc1 | 578 |
| CCCC(=O)Nc1ccc(CCc2nc3ccc(C(=O)NCc4ccco4)cc3[nH]2)cc1 | 635 |
| CCS(=O)(=O)Nc1ccc(-c2noc(COc3ccc(F)cc3)n2)cc1 | 931 |

| SMILES | RP-LC retention time [s] |
| --- | --- |
| CC(C)NC(=O)c1ccc(OCC2CCCN(C(=O)c3ccc(F)cc3F)C2)cc1 (stereo not given) | 869 |
| COc1cc(NC(=O)Nc2ccc3nc(N4CCN(C)CC4)cc(C)c3c2)cc(OC)c1OC | 574 |
| Cc1ccn2c(NC(=O)c3ccc(Cl)cc3)c(-c3ccc(F)cc3)nc2c1 | 693 |
| O=C(Cn1c(=O)c2cccn2c2ccc(F)cc21)NCc1cccs1 | 785 |
| COc1cc(NC(=O)N2CCN(Cc3ccccc3)c3ncccc32)cc(OC)c1OC | 665 |
| CN(c1ccc(F)cc1)S(=O)(=O)N1CCCC(C(=O)NCCCN2CCc3ccccc3C2)C1 (stereo not given) | 706 |
| Cc1nnc2cc(N3CCN(S(=O)(=O)c4ccc(C#N)cc4)CC3)cnn12 | 642 |
| Oc1c(C(Nc2ccccn2)c2ccccc2F)ccc2cccnc12 (stereo not given) | 604 |
| O=C(CN1C[C@H]2C[C@H](C1)[C@H]1CCCC(=O)N1C2)Nc1ccc2c(c1)OCCO2 | 587 |
| Cn1ncc(NC(=O)c2ccc(Br)cc2)c(N2CCOCC2)c1=O | 814 |
| O=C(c1cc2ccccc2[nH]1)N1CCN(Cc2nc3ccccc3[nH]2)CC1 | 576 |
| Cc1nc(C)c(C(=O)N2CCC(N3C[C@H](O)C[C@H]3C(=O)NC3CCCCC3)CC2)s1 | 574 |
| COc1ccc(N2CC(c3nc(-c4ccccc4F)no3)CC2=O)cc1 (stereo not given) | 865 |
| Cn1cc(-c2ccc(Cl)cc2)cc1C(=O)NCc1ccco1 | 1020 |
| O=C(Nc1cccc(Cl)c1)c1nnc(CCCC(=O)N2CCN(c3ccccn3)CC2)s1 | 669 |
| COc1ccc(OC)c(CNC(=O)NC2COc3ccc(OC)cc3C2)c1 (stereo not given) | 810 |
| O=C(C1CCN(S(=O)(=O)c2ccc(-c3noc(-c4cccc(F)c4)n3)cc2)CC1)N1CCCC1 | 1020 |
| CC(C)c1noc(-c2ccc(-n3cnc(C(=O)NC4CCCC4)c3)nc2)n1 | 915 |
| Cc1cccc(N(C)C(=O)Cc2c(C(=O)O)c(C)cn2C)c1 | 739 |
| O=C1COc2c(CCNCCN(C(=O)CCNCCc3ccc(Cl)c(Cl)c3)C3CCCCC3)ccc(O)c2N1 | 691 |
| Cc1cccc2c(=O)n(C3CCN(C(=O)Nc4ccc5c(c4)OCCO5)CC3)cnc12 | 766 |
| Cn1nccc1C(=O)N1CC2CN(S(=O)(=O)c3cccc(F)c3)CC(C1)O2 | 693 |
| CSc1cccc(NC(=O)Cn2cnc3nc4c(cc3c2=O)CCCC4)c1 | 755 |

| SMILES | RP-LC retention time [s] |
| --- | --- |
| CCCNC(=O)c1cnn(-c2cc(-c3nc(CC)no3)ccn2)c1C | 849 |
| COc1ccc(C(=O)Nc2nc(-c3ccc4c(c3)N(C)C(=O)C(C)O4)cs2)cc1OC (stereo not given) | 932 |
| Cc1ccc(C(=O)N2CC[C@H](CO)[C@H](N(C)C)C2)s1 | 577 |
| CN(C)c1cccc(C(=O)Nc2cc(-c3cccnc3)no2)c1 | 728 |
| CN1CCCc2cc(CCNC(=O)c3c(F)cccc3F)ccc21 | 614 |
| COc1ncc(C(=O)N2CCN(c3ccccc3Cl)CC2)cn1 | 811 |
| CCOc1ncccc1C(=O)Nc1c(C)nc2sc(C)c(C)n2c1=O | 723 |
| CN(C)C[C@@H]1CN(c2ncccn2)C[C@H]1NS(=O)(=O)Cc1ccccc1 | 601 |
| O=C(Cc1noc2ccccc12)Nc1cccc2nsnc12 | 814 |
| COC(=O)c1ccc(NC(=O)C2CCN(S(=O)(=O)c3ccc4c(c3)sc(=O)n4C)CC2)cc1 | 854 |
| O=C(Cn1c(=O)c(CCC(=O)NC2CC2)nc2ccccc21)Nc1cccc(Br)c1 | 781 |
| N[C@@H](Cc1cc(CP(=O)(O)O)cc(-c2ccccc2Cl)c1)C(=O)O | 647 |
| CCNC(=O)CN1C(=O)CCSc2ccccc21 | 664 |
| Cc1c(-c2noc(-c3ccc4c(c3)OCO4)n2)nnn1Cc1ccc(F)cc1 | 999 |
| CCCS(=O)(=O)N1CCCC(C)(C(=O)NCc2ccc(OC)cc2)C1 (stereo not given) | 798 |
| CC(C)n1cc(C(=O)O)c(S(=O)(=O)N2CCCC2)n1 | 712 |
| Cc1ccc(NC(=O)c2cccc([N+](=O)[O-])c2O)c(C)c1 | 951 |
| COc1cccc(NC(=O)Cc2c(C)nn(-c3nc(-c4ccc(Cl)cc4)cs3)c2C)c1 | 1230 |
| CC(C)c1noc(-c2ccc(-n3cnc(C(=O)NCC4CC4)c3)nc2)n1 | 839 |
| Cc1cnc(C)n1CC1CCN(S(=O)(=O)c2ccc(C#N)cc2)C1 (stereo not given) | 628 |
| Cc1ccc(S(=O)(=O)Cc2ccc(-c3nc(-c4ccc5oc(C)nc5c4)no3)cc2)cc1 | 1070 |
| CCc1cccc(NC(=O)Nc2cnn(-c3ncc(N4CCCC4)cn3)c2)c1 | 749 |
| COc1ccc(OC)c(NC(=O)CN2CCN(Cc3ccccc3)C(=O)C2=O)c1 | 732 |

| SMILES | RP-LC retention time [s] |
| --- | --- |
| CC(Cc1cccc(C(F)(F)F)c1)NCCCc1ccccc1 (stereo not given) | 868 |
| Cc1nc(-c2cc(S(=O)(=O)Nc3cccc(F)c3)c(C)s2)sc1C | 1060 |
| CC1CCN(c2cnn(CC(=O)Nc3cccc(C(C)C)c3)c(=O)c2Cl)CC1 | 1100 |
| CCC(C)NC(=O)c1cc2c(s1)CCN(C(=O)c1ccc(F)cc1)C2 (stereo not given) | 804 |
| CCc1nc(N2CCC(C(=O)NCc3ccc(OC)c(OC)c3)CC2)c2c(C)scc2n1 | 650 |
| CN(c1nc(-c2ccc(Cl)cc2)nc2ccccc12)C1CCCCC1 | 941 |
| CCc1noc(NC(C)=O)c1-c1ccc(C)c(S(=O)(=O)NC2CCCCCC2)c1 | 909 |
| CCN1CCN(CCCNC(=O)CN2CCSc3ccccc32)CC1 | 580 |
| CCC(=O)NCc1nc2c(n1CC)CN(C(=O)c1ccccc1C(F)(F)F)CC2 | 594 |
| CCC(C(=O)NCCc1c(C)noc1C)n1c2ccccc2c2cnn(C)c(=O)c21 (stereo not given) | 739 |
| O=C1c2ccccc2C(=O)N1c1nc(-c2ccccc2)cs1 | 864 |
| Cc1cccc(C)c1-n1nnc(C(=O)NCC2CCCO2)c1C (stereo not given) | 754 |
| Cc1cc(NC(=O)c2cn3c(n2)CSCC3)ccc1F | 743 |
| Cc1ccc(Cl)cc1N1CCN(C(=O)C2CC(=O)c3ccccc32)CC1 (stereo not given) | 922 |
| O=C(NCc1ccc(F)cc1F)c1cc2n(n1)CCCC2 | 812 |
| CC1=C(c2ccc(F)cc2)S(=O)(=O)N=C1N1CCCN(C(=O)c2cccc(F)c2)CC1 | 835 |
| CCCc1nc2ccc(NC(=O)NCC)cc2c(=O)n1Cc1ccc(-c2ccccc2)cc1 | 996 |
| Clc1ccc(-c2nc(-c3ccc(-n4ccnc4)nc3)no2)cc1 | 797 |
| CCn1nc(N2CCCC(NS(=O)(=O)c3c(C)nn(C)c3C)C2)ccc1=O (stereo not given) | 642 |
| CCN1C(=O)c2cccnc2Sc2cc(NC(=O)Cc3cccc(F)c3)ccc21 | 826 |
| COCCN1C(=O)CCc2cc(NS(=O)(=O)c3ccccc3F)ccc21 | 726 |
